For 36 molecules, IC50 results are on record in patent US11001561B2, “Pyrimidinone derivatives as SHP2 antagonists” (MERCK PATENT GMBH, priority 2019, dated 2021).

Where a name gives a salt, the structure may show the parent alone.

The target of one experiment is Full length SHP2 protein (Recombinant Human SHP-2) (Homo sapiens (Human), UniProt Q06124). The experiment can be described thus: SHP2 biochemical assay (DiFMUP substrate, activating peptide IRSI_2pY). Conditions: SHP-2 biochemical assay IC50 (μM), activating peptide IRSI_2pY 140 nM, DiFMUP, 60 min.
Protocol: The inhibition of SHP2 by compounds of the invention was monitored using the surrogate substrate DiFMUP after protein activation by a peptide bearing two appropriately spaced phosphotyrosine. […] The generation of the DiFMU product by activated SHP2 was monitored through Fluorescence measurement with a PerkinElmer Envision reader. The inhibitor dose response curves were analyzed with Genedata Screener.
Consider `Cc1nc(N2CCC3(CC2)CO[C@@H](C)[C@H]3N)cc(=O)n1-c1c(F)ccc(Cl)c1Cl` (single isomer, unassigned) [Compound 32b], for which the half-maximal inhibitory concentration (IC50) (as a rule, the point on the concentration scale where inhibition reaches its midpoint) stood at 1.9 µM.
The same measure, in the same setting: next, `Cc1nc(N2CCC(C)([C@H](O)CN)CC2)cc(=O)n1-c1cccc(Cl)c1Cl` (racemic) [Compound 57b, (+/−)-(3P)-6-{4-[(1S)-2-amino-1-hydroxyethyl]-4-methylpiperidin-1-yl}-3-(2,3-dichlorophenyl)-2-methyl-3,4-dihydropyrimidin-4-one]: 3 µM; `Cc1c(N[C@H]2CC[C@@H](N)CC2)ncn(-c2cccc(Cl)c2Cl)c1=O` [Compound 85, 6-(4-Amino-cyclohexylamino)-3-(2,3-dichloro-phenyl)-5-methyl-3H-pyrimidin-4-one]: above 10 µM.
On the same count and under the same terms, next, `COc1c(N2CCC3(CC2)CO[C@@H](C)[C@H]3N)nc(C)n(-c2cccc(Cl)c2Cl)c1=O` (single isomer, unassigned) [Compound 73b]: 0.91 µM.
Same read-out and setting: then `Cc1nc(N(C)[C@H]2CC[C@](C)(N)CC2)cc(=O)n1-c1cccc(Cl)c1Cl` (single isomer, unassigned) [Compound 71a, 3-(2,3-dichlorophenyl)-2-methyl-6-{methyl[(trans)-4-amino-4-methylcyclohexyl]amino}-3,4-dihydropyrimidin-4-one], with above 50 µM.
With `Cc1c(N2CCC3(CC2)Oc2ccccc2[C@H]3N)nc(C)n(-c2cccc(Cl)c2Cl)c1=O` (single isomer, unassigned) [Compound 81a], the IC50 came out at 0.47 µM.
Regarding `Cc1nc(N2C[C@@H]3CCC[C@]3(CN)C2)c(C(F)(F)F)c(=O)n1-c1cccc(Cl)c1Cl` (racemic) [Compound 25, (+/−)-6-[(3aS,6aR)-3a-(aminomethyl)-octahydrocyclopenta[c]pyrrol-2-yl]-3-(2,3-dichlorophenyl)-2-methyl-5-(trifluoromethyl)-3,4-dihydropyrimidin-4-one], the IC50 stood at 14 µM.

Staying with this experiment, now noted: activating peptide IRSI_2pY 140 nM, DiFMUP, 60 min; read-out: SHP-2 biochemical assay IC50.
With `Cc1nc(N2CCC3(CC2)CC3CN)cc(=O)n1-c1cccc(Cl)c1Cl` (stereo not drawn) [Compound 13, 6-[1-(aminomethyl)-6-azaspiro[2.5]octan-6-yl]-3-(2,3-dichlorophenyl)-2-methyl-3,4-dihydropyrimidin-4-one], the half-inhibitory concentration (IC50) was determined as 4.3 µM.
Consider `Cc1c(N2CCC(C)(N)CC2)nc(C)n(-c2ccc3ccccc3c2)c1=O` [Compound 39, 6-(4-Amino-4-methyl-piperidin-1-yl)-2,5-dimethyl-3-naphthalen-2-yl-3H-pyrimidin-4-one], for which the IC50 was above 10 µM.
Still for that read-out and setting: then `Cc1nc(C2=CCC(C)(CN)CC2)cc(=O)n1-c1cccc(Cl)c1Cl` (stereo not drawn) [Compound 9, 6-[4-(aminomethyl)-4-methylcyclohex-1-en-1-yl]-3-(2,3-dichlorophenyl)-2-methyl-3,4-dihydropyrimidin-4-one], with 16 µM; and “(3M)-6-[(3aR,6aS)-3a-(aminomethyl)-5- (hydroxymethyl)- octahydrocyclopenta[c]pyrrol-2-yl]-3- (2,3-dichlorophenyl)-2,5-dimethyl-3,4- dihydropyrimidin-4-one [Compound 101]”, with 0.23 µM; and `CC1(N)CCN(c2cc(=O)n(-c3cccc(Cl)c3Cl)c(C(F)F)n2)CC1` [Compound 11, 6-(4-amino-4-methylpiperidin-1-yl)-3-(2,3-dichlorophenyl)-2-(difluoromethyl)-3,4-dihydropyrimidin-4-one], with 3.8 µM.
Same read-out and setting: next, `Cc1c(N2CCC3(CC2)CO[C@@H](C)[C@H]3N)nc(C)n(-c2ccc3nccnc3c2)c1=O` [Compound 53, 6-((3S,4S)-4-Amino-3-methyl-2-oxa-8-aza-spiro[4.5]dec-8-yl)-2,5-dimethyl-3-quinoxalin-6-yl-3H-pyrimidin-4-one]: 6.1 µM.
Same read-out and setting: then `CC1(CN)CCN(c2cc(=O)n(-c3cccc(Cl)c3Cl)c(C(F)F)n2)CC1` [Compound 17, 6-[4-(aminomethyl)-4-methylpiperidin-1-yl]-3-(2,3-dichlorophenyl)-2-(difluoromethyl)-3,4-dihydropyrimidin-4-one], with 3 µM.
Consider `CNC1(C)CCN(c2cc(=O)n(-c3cccc(Cl)c3Cl)c(C)n2)CC1` [Compound 31, 3-(2,3-dichlorophenyl)-2-methyl-6-[4-methyl-4-(methylamino)piperidin-1-yl]-3,4-dihydropyrimidin-4-one], for which the IC50 was found to be 0.56 µM.
Still for that read-out and setting: next, `Cc1nc(N2CCC(CO)(CCN)CC2)cc(=O)n1-c1cccc(Cl)c1Cl` [Compound 16, 6-[4-(2-aminoethyl)-4-(hydroxymethyl)piperidin--yl]-3-(2,3-dichlorophenyl)-2-methyl-3,4-dihydropyrimidin-4-one]: 4.3 µM; `Cc1c(N2CCC3(CC2)CO[C@@H](C)[C@H]3N)nc(C)n(-c2cccc3ncsc23)c1=O` [Compound 84, 6-((3S,4S)-4-Amino-3-methyl-2-oxa-8-aza-spiro[4.5]dec-8-yl)-3-benzothiazol-7-yl-2,5-dimethyl-3H-pyrimidin-4-one]: above 10 µM.
The same measure, in the same setting: then `Cc1c(N2CCC(C)(CN)CC2)nc(C)n(-c2ccc3ccccc3c2Cl)c1=O` [Compound 54, 6-(4-Aminomethyl-4-methyl-piperidin-1-yl)-3-(1-chloro-naphthalen-2-yl)-2,5-dimethyl-3H-pyrimidin-4-one], with 5.6 µM.
In the case of `CSc1nc(N2CCC(C)(N)CC2)cc(=O)n1-c1cccc(Cl)c1Cl` [Compound 1, 6-(4-amino-4-methylpiperidin-1-yl)-3-(2,3-dichlorophenyl)-2-(methylsulfanyl)-3,4-dihydropyrimidin-4-one], the concentration for half-maximal inhibition (IC50) was determined as 8.6 µM.
Take `Cc1nc(N2CC3CCC(C2)N3)cc(=O)n1-c1cccc(Cl)c1Cl` [Compound 56, 6-3,8-diazabicyclo[3.2.1]octan-3-yl-3-(2,3-dichlorophenyl)-2-methyl-3,4-dihydropyrimidin-4-one]: the concentration for half-maximal inhibition (IC50) is 5.2 µM.
On the same count and under the same terms, then `Cc1nc(N2CCC3(CC2)CO[C@@H](C)[C@H]3N)cc(=O)n1-c1ccccc1` [Compound 7, 6-[(3S,4S)-4-amino-3-methyl-2-oxa-8-azaspiro[4.5]decan-8-yl]-2-methyl-3-phenyl-3,4-dihydropyrimidin-4-one], with 4.8 µM; and `Cc1c(N2CCN3CC(N)CC3C2)nc(C)n(-c2cccc(Cl)c2Cl)c1=O` (stereo not drawn) [Compound 100, (3M)-6-7-amino-octahydropyrrolo[1,2-a]pyrazin-2-yl-3-(2,3-dichlorophenyl)-2,5-dimethyl-3,4-dihydropyrimidin-4-one], with 5.8 µM.
On the same count and under the same terms, next, `Cc1c(N2CCC3(CCC[C@@H]3N)CC2)nc(N)n(-c2cccc(Cl)c2Cl)c1=O` (single isomer, unassigned) [Compound 78a]: above 50 µM.
Turning to `Cc1nc(N2CCCC(C)(N)CC2)cc(=O)n1-c1cccc(Cl)c1Cl` (stereo not drawn) [Compound 21, 6-(4-amino-4-methylazepan-1-yl)-3-(2,3-dichlorophenyl)-2-methyl-3,4-dihydropyrimidin-4-one hydrochloride], the IC50 worked out at 1.6 µM.
Same read-out and setting: then `Cc1c(N2CCC3(CC2)CO[C@@H](C)[C@H]3N)nc(C)n(-c2ccc3ccccc3c2)c1=O` [Compound 45, 6-((3S,4S)-4-Amino-3-methyl-2-oxa-8-aza-spiro[4.5]dec-8-yl)-2,5-dimethyl-3-naphthalen-2-yl-3H-pyrimidin-4-one], with 1.2 µM; and `Cc1c(N2CCC(C)(CN)CC2)nc(C)n(-c2ccc3ccccc3c2)c1=O` [Compound 44, 6-(4-Aminomethyl-4-rnethyl-piperidin-1-yl)-2,5-dimethyl-3-naphthalen-2-yl-3H-pyrimidin-4-one], with 18 µM.
Still for that read-out and setting: next, `Cc1c(N2CCCC3(CCC3N)C2)nc(C)n(-c2cccc(Cl)c2Cl)c1=O` (stereo not drawn) [Compound 90, 6-1-amino-6-azaspiro[3.5]nonan-6-yl-3-(2,3-dichlorophenyl)-2,5-dimethyl-3,4-dihydropyrimidin-4-one]: 3.9 µM; `CCc1c(N2CCC3(CC2)CO[C@@H](C)[C@H]3N)nc(C)n(-c2cccc(Cl)c2Cl)c1=O` [Compound 36, 6-[(3S,4S)-4-amino-3-methyl-2-oxa-8-azaspiro[4.5]decan-8-yl]-3-(2,3-dichlorophenyl)-5-ethyl-2-methyl-3,4-dihydropyrimidin-4-one]: 5 µM.
Same read-out and setting: then `Cc1c(N2CCC3(CC2)Oc2cnccc2[C@@H]3N)nc(C)n(-c2cccc(Cl)c2Cl)c1=O` (single isomer, unassigned) [Compound 80d], with 1.4 µM; and `Cc1nc(N2CC3CCCC3(CN)C2)cc(=O)n1-c1cccc(Cl)c1Cl` (stereo not drawn) [Compound 14, 6-[3a-(aminomethyl)-octahydrocyclopenta[c]pyrrol-2-yl]-3-(2,3-dichlorophenyl)-2-methyl-3,4-dihydropyrimidin-4-one], with 6.6 µM; and `Cc1c(N2CCC3(CC2)CC3N)nc(C)n(-c2cccc(Cl)c2Cl)c1=O` (stereo not drawn) [Compound 89, 6-1-amino-6-azaspiro[2.5]octan-6-yl-3-(2,3-dichlorophenyl)-2,5-dimethyl-3,4-dihydropyrimidin-4-one], with 1.3 µM.
Consider `Cc1c(N2CCc3cccc(N)c3C2)nc(C)n(-c2cccc(Cl)c2Cl)c1=O` [Compound 51, 6-(8-amino-1,2,3,4-tetrahydroisoquinolin-2-yl)-3-(2,3-dichlorophenyl)-2,5-dimethyl-3,4-dihydropyrimidin-4-one], for which the IC50 is above 10 µM.
Still for that read-out and setting: next, `Cc1c(N2CCC3(CC2)CC3CN)nc(C)n(-c2cccc(Cl)c2Cl)c1=O` (stereo not drawn) [Compound 86, 6-[1-(aminomethyl)-6-azaspiro[2.5]octan-6-yl]-3-(2,3-dichlorophenyl)-2,5-dimethyl-3,4-dihydropyrimidin-4-one]: 4.6 µM; `Cc1c(N2CCCC(CN)CC2)nc(C)n(-c2cccc(Cl)c2Cl)c1=O` (stereo not drawn) [Compound 91, 6-[4-(aminomethyl)azepan-1-yl]-3-(2,3-dichlorophenyl)-2,5-dimethyl-3,4-dihydropyrimidin-4-one]: 2 µM; `Cc1c(N2CCC(C)(N)CC2)nc(C)n(-c2ccc3nccnc3c2)c1=O` [Compound 47, 6-(4-Amino-4-methyl-piperidin-1-yl)-2,5-dimethyl-3-quinoxalin-6-yl-3H-pyrimidin-4-one]: above 10 µM.
Take `Cc1c(N2CCC3(CCC[C@H]3N)CC2)nc(N)n(-c2cccc(Cl)c2Cl)c1=O` (single isomer, unassigned) [Compound 78b]: the concentration for half-maximal inhibition (IC50) is above 10 µM.
